“And” between values parts separate entries of the source, which are not always exact repeats. Equal values may be shown once. Inconclusive results and toxic doses are left out.
Tested on: CD2F1 mice, L1210 leukemia ip, survival T/C
Assay: NCI In Vivo Anticancer Drug Screen. Data for tumor model L1210 Leukemia (intraperitoneal) in CD2F1 (CDF1) mice
Details: endpoint: mean survival time, higher = longer survival
Outline: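 Read-out first: treated-group measurement over vehicle-control measurement, expressed as a ratio. Animals bore a transplanted tumor line and were dosed with compound or vehicle.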

[1] = dose: 100.0 mg/kg/injection, schedule: Q04DX003 (ip), vehicle: saline with Tween-80
[2] = dose: 200.0 mg/kg/injection, schedule: Q04DX003 (ip), vehicle: saline with Tween-80
[3] = dose: 400.0 mg/kg/injection, schedule: Q04DX003 (ip), vehicle: saline with Tween-80
[4] = dose: 100.0 mg/kg/injection, schedule: Q01DX009 (ip), vehicle: saline with Tween-80
[5] = dose: 200.0 mg/kg/injection, schedule: Q01DX009 (ip), vehicle: saline with Tween-80
[6] = dose: 400.0 mg/kg/injection, schedule: Q01DX009 (ip), vehicle: saline with Tween-80
[7] = dose: 12.5 mg/kg/injection, schedule: Q01DX009 (ip), vehicle: saline with Tween-80
[8] = dose: 25.0 mg/kg/injection, schedule: Q01DX009 (ip), vehicle: saline with Tween-80
[9] = dose: 50.0 mg/kg/injection, schedule: Q01DX009 (ip), vehicle: saline with Tween-80
[10] = dose: 100.0 mg/kg/injection, schedule: Q01DX009 (ip), vehicle: other
[11] = dose: 100.0 mg/kg/injection, schedule: Q01DX001 (ip), vehicle: saline
[12] = dose: 200.0 mg/kg/injection, schedule: Q01DX001 (ip), vehicle: saline
[13] = dose: 400.0 mg/kg/injection, schedule: Q01DX001 (ip), vehicle: saline
[14] = dose: 100.0 mg/kg/injection, schedule: Q04DX003 (ip), vehicle: saline
[15] = dose: 12.5 mg/kg/injection, schedule: Q04DX002 (ip), vehicle: saline
[16] = dose: 100.0 mg/kg/injection, schedule: Q01DX001 (ip), vehicle: saline with Tween-80
[17] = dose: 200.0 mg/kg/injection, schedule: Q01DX001 (ip), vehicle: saline with Tween-80
[18] = dose: 400.0 mg/kg/injection, schedule: Q01DX001 (ip), vehicle: saline with Tween-80
[19] = dose: 200.0 mg/kg/injection, schedule: Q04DX003 (ip), vehicle: saline
[20] = dose: 400.0 mg/kg/injection, schedule: Q04DX003 (ip), vehicle: saline

In the case of `Cc1ccnc(-n2c(N)cc(=O)[nH]c2=S)c1`, the T/C [1] is reported as 97 % of control, the T/C [2] is reported as 97 % of control and the T/C [3] is reported as 96 % of control.

`O=[N+]([O-])c1ccc(O)c(C[P+](c2ccccc2)(c2ccccc2)c2ccccc2)c1` was tested, and the T/C [4] was 93 % of control, the T/C [5] was 95 % of control and the T/C [6] was 102 % of control.

For `O=C(NC1CCCCC1)OCc1c(COC(=O)NC2CCCCC2)c(-c2ccc(Cl)c(Cl)c2)n2c1CCC2`, the T/C [7] was 119 % of control and 112 % of control, the T/C [8] was 112 % of control and the T/C [4] was 122 % of control. For the same compound, the T/C [5] was 151 % of control and 157 % of control and the T/C [6] was 121 % of control and 97 % of control.

With `CN(C)N=Nc1c(F)cccc1F` the T/C (dose: 6.25 mg/kg/injection, schedule: Q01DX009 (ip), vehicle: other) was 98 % of control, the T/C (dose: 12.5 mg/kg/injection, schedule: Q01DX009 (ip), vehicle: other) was 113 % of control and 93 % of control and the T/C [7] was 98 % of control. For the same compound, the T/C (dose: 25.0 mg/kg/injection, schedule: Q01DX009 (ip), vehicle: other) was 117 % of control and 100 % of control, the T/C [8] was 106 % of control and the T/C (dose: 50.0 mg/kg/injection, schedule: Q01DX009 (ip), vehicle: other) was 91 % of control. The T/C [9] was 120 % of control and the T/C [10] was 102 % of control and 104 % of control.

`Nc1ncnc2c1ncn2C1OC(CO)C(NC(=O)C(N)Cc2ccccc2)C1O` (stereo not drawn) was tested, and the T/C [11] was 94 % of control, the T/C [12] was 92 % of control and the T/C [13] was 91 % of control.

With `NC(N)=NC1CCCC1` the T/C [8] was 102 % of control, the T/C (dose: 25.0 mg/kg/injection, schedule: Q04DX003 (ip), vehicle: saline) was 100 % of control and the T/C [9] was 100 % of control. The T/C (dose: 50.0 mg/kg/injection, schedule: Q04DX003 (ip), vehicle: saline) was 91 % of control and the T/C [14] was 100 % of control.

In the case of `Cc1cccc(N)n1`, the T/C (dose: 3.13 mg/kg/injection, schedule: Q04DX002 (ip), vehicle: saline) is reported as 94 % of control, the T/C (dose: 6.25 mg/kg/injection, schedule: Q04DX002 (ip), vehicle: saline) is reported as 90 % of control and the T/C [15] is reported as 90 % of control.

With `Nc1ccc(CCCCc2ccccc2)cc1` the T/C (dose: 100.0 mg/kg/injection, schedule: Q04DX003 (ip), vehicle: acetone) was 107 % of control.

With `CC(=O)CCS(=O)(=O)O` the T/C [16] was 92 % of control, the T/C [17] was 95 % of control and the T/C [18] was 88 % of control.

For `O=C(O)C(C(=O)O)C1Cc2cccc3cccc1c23` (stereo not drawn), the T/C [16] was 94 % of control.

For `O=C1CSc2nc3ccccc3n21`, the T/C [10] was 98 % of control, the T/C (dose: 200.0 mg/kg/injection, schedule: Q01DX009 (ip), vehicle: other) was 98 % of control and the T/C (dose: 400.0 mg/kg/injection, schedule: Q01DX009 (ip), vehicle: other) was 105 % of control.

For `CCCC(C)C1=NC(C)(C)CCO1` (stereo not drawn), the T/C [15] was 96 % of control, the T/C (dose: 25.0 mg/kg/injection, schedule: Q04DX002 (ip), vehicle: saline) was 101 % of control and the T/C (dose: 50.0 mg/kg/injection, schedule: Q04DX002 (ip), vehicle: saline) was 93 % of control.

`CC(C#N)(Nc1ccccc1)c1ccc(Cl)cc1` (stereo not drawn) was tested, and the T/C [9] was 86 % of control, the T/C [5] was 97 % of control and the T/C [2] was 87 % of control.

In the case of `Cc1cc(C(=O)O)c(C)c([N+](=O)[O-])c1`, the T/C [16] is reported as 96 % of control, the T/C [17] is reported as 96 % of control and the T/C [18] is reported as 100 % of control.

In the case of `NC(=S)N/N=C/c1ccc(OC(=O)COc2cc(Cl)c(Cl)cc2Cl)cn1`, the T/C (dose: 100.0 mg/kg/injection, schedule: Q04DX002 (ip), vehicle: saline with Tween-80) is reported as 122 % of control, the T/C (dose: 200.0 mg/kg/injection, schedule: Q04DX002 (ip), vehicle: saline with Tween-80) is reported as 114 % of control and the T/C (dose: 400.0 mg/kg/injection, schedule: Q04DX002 (ip), vehicle: saline with Tween-80) is reported as 122 % of control.

With `COC(OC)c1ccc(Cl)nc1` the T/C [16] was 98 % of control, the T/C [4] was 96 % of control and the T/C [17] was 101 % of control. The T/C [5] was 94 % of control, the T/C [18] was 101 % of control and the T/C [6] was 92 % of control.

`c1ccc(C2CO2)cc1` (stereo not drawn) was tested, and the T/C (dose: 150.0 mg/kg/injection, schedule: Q04DX003 (ip), vehicle: Klucel (hydroxypropylcellulose) (HPC)) was 102 % of control and the T/C (dose: 225.0 mg/kg/injection, schedule: Q04DX003 (ip), vehicle: Klucel (hydroxypropylcellulose) (HPC)) was 102 % of control.

In the case of `CCCCCCN(CCCCCC)CP(=O)(CN(CCCCCC)CCCCCC)CN(CCCCCC)CCCCCC`, the T/C [16] is reported as 95 % of control, the T/C [17] is reported as 104 % of control and the T/C [18] is reported as 104 % of control.

In the case of `O=c1c(-c2ccccc2)nn(C2OC(CO)C(O)C(O)C2O)c(=S)n1-c1ccccc1` (stereo not drawn), the T/C (dose: 7.8 mg/kg/injection, schedule: Q01DX005 (ip), vehicle: water) is reported as 101 % of control, the T/C (dose: 15.6 mg/kg/injection, schedule: Q01DX005 (ip), vehicle: water) is reported as 96 % of control and the T/C (dose: 31.3 mg/kg/injection, schedule: Q01DX005 (ip), vehicle: water) is reported as 101 % of control. For the same compound, the T/C (dose: 62.5 mg/kg/injection, schedule: Q01DX005 (ip), vehicle: water) was 93 % of control and the T/C (dose: 125.0 mg/kg/injection, schedule: Q01DX005 (ip), vehicle: water) was 101 % of control.

For `CN(C)N=Nc1ccc(Cl)cc1`, the T/C (dose: 79.0 mg/kg/injection, schedule: Q01DX009 (ip), vehicle: Klucel (hydroxypropylcellulose) (HPC)) was 111 % of control and the T/C (dose: 118.0 mg/kg/injection, schedule: Q01DX009 (ip), vehicle: Klucel (hydroxypropylcellulose) (HPC)) was 119 % of control.

With `NC(=O)COc1c(I)cc(I)cc1I` the T/C (dose: 100.0 mg/kg/injection, schedule: Q01DX009 (ip), vehicle: saline sonified) was 101 % of control, the T/C [1] was 98 % of control and the T/C (dose: 200.0 mg/kg/injection, schedule: Q01DX009 (ip), vehicle: saline sonified) was 92 % of control. For the same compound, the T/C [2] was 98 % of control, the T/C (dose: 400.0 mg/kg/injection, schedule: Q01DX009 (ip), vehicle: saline sonified) was 89 % of control and the T/C [3] was 96 % of control.

For `CCCCC1(C2CCCC2)NC(C)(C)CC(C)O1` (stereo not drawn), the T/C [14] was 97 % of control, the T/C [19] was 96 % of control and the T/C [20] was 89 % of control.

For `Nc1cccc(N2N=C(C(=O)O)CC2=O)c1`, the T/C [4] was 90 % of control, the T/C [1] was 103 % of control and the T/C [5] was 91 % of control. For the same compound, the T/C [2] was 103 % of control, the T/C [6] was 91 % of control and the T/C [3] was 101 % of control.

`CCC1C(=O)OCc2c1cc1n(c2=O)C(CC)c2c-1nc1ccccc1c2Cl` (stereo not drawn) was tested, and the T/C [14] was 98 % of control, the T/C [19] was 95 % of control and the T/C [20] was 90 % of control.

With `O=[N+]([O-])c1c(Cl)c(Cl)cc(Cl)c1Cl` the T/C [4] was 94 % of control, the T/C [1] was 93 % of control and the T/C [5] was 96 % of control. The T/C [2] was 97 % of control, the T/C [6] was 98 % of control and the T/C [3] was 98 % of control.

In the case of `O=C1C=CC(=O)N1c1ccc(Oc2ccc(Cl)cc2)cc1`, the T/C [9] is reported as 103 % of control, the T/C [4] is reported as 107 % of control and the T/C [5] is reported as 88 % of control.

In the case of `Cc1cccc(Cl)c1OCC1CO1` (stereo not drawn), the T/C [11] is reported as 110 % of control, the T/C [12] is reported as 110 % of control and the T/C [13] is reported as 110 % of control.

For `CC1(C)CC(OP(=O)(OC2CC(C)(C)N(O)C(C)(C)C2)N2CC2)CC(C)(C)N1O`, the T/C (dose: 12.5 mg/kg/injection, schedule: Q01DX009 (ip), vehicle: water) was 102 % of control, the T/C (dose: 25.0 mg/kg/injection, schedule: Q01DX009 (ip), vehicle: water) was 113 % of control and 104 % of control and the T/C (dose: 50.0 mg/kg/injection, schedule: Q01DX009 (ip), vehicle: water) was 110 % of control. For the same compound, the T/C (dose: 100.0 mg/kg/injection, schedule: Q01DX009 (ip), vehicle: water) was 112 % of control.

For `O=C1/C(=C/c2ccccc2[N+](=O)[O-])CCc2ccccc21`, the T/C (dose: 100.0 mg/kg/injection, schedule: Q01DX009 (ip), vehicle: Klucel (hydroxypropylcellulose) (HPC)) was 97 % of control, the T/C (dose: 200.0 mg/kg/injection, schedule: Q01DX009 (ip), vehicle: Klucel (hydroxypropylcellulose) (HPC)) was 91 % of control and the T/C (dose: 400.0 mg/kg/injection, schedule: Q01DX009 (ip), vehicle: Klucel (hydroxypropylcellulose) (HPC)) was 96 % of control.

`CC1(CO)CCCC2(C)C3=C(CCCC3)CCC12` (stereo not drawn) was tested, and the T/C (dose: 50.0 mg/kg/injection, schedule: Q04DX003 (ip), vehicle: saline with Tween-80) was 97 % of control, the T/C [1] was 101 % of control and the T/C [2] was 97 % of control.
